Experimental data as given in US8222247B2, “Modulators of glucocorticoid receptor, AP-1, and/or NF-kappabeta activity and use thereof” (Bristol-Myers Squibb Company, priority 2006, dated 2012).
Read-outs that look alike come from different tables or passages of the source.

Test system: AP-1 induced transcriptional activity
Experiment: Cellular Transrepressional Assay (AP-1 luciferase reporter in A549 cell, PMA activated)
Assay type: cell-based
Details: pAP-1-Luc; for Emax / AP-1 Max % inh (Cellular Transrepression Assay): maximum inhibition, PMA; for Emax: read-out: AP-1 Max % inh (Cellular Transrepression Assay); for EC50: 10 ng/ml PMA, 7 hours, read-out: AP-1 EC50, nM (Cellular Transrepression Assay)
Procedure: Cellular Transrepressional Assay
To measure the ability of test molecules to inhibit AP-1 induced transcriptional activity we utilized an A549 cell which was stably transfected with a plasmid containing 7×AP-1 DNA binding sites (pAP-1-Luc plasmid, Stratagene Co. La Jolla, Calif.) followed by the gene for luciferase. Cells were activated with 10 ng/ml of phorbol myristic acid (PMA) plus or minus test molecules for 7 hours. After 7 hours a luciferase reagent was added to measure luciferase enzymatic activity in the cell. After a 10 minute incubation of luciferase reagent with cells, luminescence was measured in a TopCount luminescence counter. Repression of AP-1 activity was calculated as the percentage decrease in the signal induced by PMA alone. Test molecules were analyzed in the concentration range from 0.1 nM to 40 μM. EC50s were determined by using standard curve fitting methods such as Excel fit (Microsoft Co.). An EC50 is the test molecule concentration at which there is a 50% repression of the maximal inhibition of transcription, i.e. a 50% reduction of AP-1 activity.

| SMILES | EC50 (Homo sapiens, A549, 7 h) | EC50 | Emax (Homo sapiens, A549, 7 h) | AP-1 Max % inh (Cellular Transrepression Assay) |
| --- | --- | --- | --- | --- |
| C[C@@H](C(=O)Nc1nncs1)[C@H](c1cccc(F)c1)c1ccc(-c2ccc(C(=O)N3CCC(F)(F)C3)cc2)s1 [Example 121, (2R,3R)-3-(5-(4-((3,3-difluoro-1-pyrrolidinyl)carbonyl)phenyl)-2-thienyl)-3-(3-fluorophenyl)-2-methyl-N-1,3,4-thiadiazol-2-ylpropanamide] | 66.8 nM |  | 28.7% |  |
| CCN(C)C(=O)c1ccc(-c2ccc(C(c3cccc(F)c3)C(C)C(=O)Nc3nncs3)s2)cc1 (single isomer, unassigned) [Example 99, N-ethyl-4-(5-(1-(3-fluorophenyl)-2-methyl-3-oxo-3-(1,3,4-thiadiazol-2-ylamino)propyl)-2-thienyl)-N-methylbenzamide] |  | 279 nM |  | 49.36 % inh |
| CC(C(=O)Nc1nncs1)C(c1cccc(F)c1)c1ccc(-c2ccc(C(=O)N(C)C)cc2)s1 (single isomer, unassigned) [Example 103, 4-(5-(1-(3-fluorophenyl)-2-methyl-3-oxo-3-(1,3,4-thiadiazol-2-ylamino)propyl)-2-thienyl)-N,N-dimethylbenzamide] |  | 879 nM |  | 49.86 % inh |
| C[C@@H](C(=O)Nc1nncs1)[C@H](c1cccc(F)c1)c1ccc(-c2ccc(C(=O)N3CCCC3)c(F)c2)s1 [Example 116, (2R,3R)-3-(3-fluorophenyl)-3-(5-(3-fluoro-4-(1-pyrrolidinylcarbonyl)phenyl)-2-thienyl)-2-methyl-N-1,3,4-thiadiazol-2-ylpropanamide] | 67.7 nM |  | 40.8% |  |
| CC(C(=O)Nc1nncs1)C(c1ccccc1)c1ccc(-c2ccc(C(=O)N(C)C)cc2)s1 (single isomer, unassigned) [Example 146, N,N-dimethyl-4-(5-(2-methyl-3-oxo-1-phenyl-3-(1,3,4-thiadiazol-2-ylamino)propyl)-2-thienyl)benzamide] |  | 14.6 nM | 59.1% |  |
| CC(C)(C(=O)Nc1nncs1)C(c1ccccc1)c1ccc(N2CCOCC2)nc1 (stereo not shown) [Example 13, 2,2-dimethyl-3-(6-(4-morpholinyl)-3-pyridinyl)-3-phenyl-N-1,3,4-thiadiazol-2-ylpropanamide] | 245 nM |  | 42.2% |  |
| CC(C(=O)Nc1nncs1)C(c1cccc(F)c1)c1ccc(-c2ccc(C(=O)N3CCOCC3)cc2)s1 (single isomer, unassigned) [Example 100, 3-(3-fluorophenyl)-2-methyl-3-(5-(4-(4-morpholinylcarbonyl)phenyl)-2-thienyl)-N-1,3,4-thiadiazol-2-ylpropanamide] |  | 8.8 nM | 50.6% |  |
| C[C@@H](C(=O)Nc1nncs1)[C@H](c1cccc(F)c1)c1ccc(-c2ccc(C(=O)N3CCCC3)cc2)s1 [Example 118, (2R,3R)-3-(3-fluorophenyl)-2-methyl-3-(5-(4-(1-pyrrolidinylcarbonyl)phenyl)-2-thienyl)-N-1,3,4-thiadiazol-2-ylpropanamide] | 61.6 nM |  | 55.3% |  |
| CCN(C)C(=O)c1ccc(-c2ccc(C(c3ccccc3)C(C)C(=O)Nc3nncs3)s2)cc1 (single isomer, unassigned) [Example 150, N-ethyl-N-methyl-4-(5-(2-methyl-3-oxo-1-phenyl-3-(1,3,4-thiadiazol-2-ylamino)propyl)-2-thienyl)benzamide] |  | 17.5 nM | 57.2% |  |
| CC(C(=O)Nc1nncs1)C(c1ccccc1)c1ccc(-c2ccc(C(=O)N(C)C)c(Cl)c2)s1 (single isomer, unassigned) [Example 149, 2-chloro-N,N-dimethyl-4-(5-(2-methyl-3-oxo-1-phenyl-3-(1,3,4-thiadiazol-2-ylamino)propyl)-2-thienyl)benzamide] |  | 216 nM |  | 54.20 % inh |
| CCN(C)C(=O)c1ccc(-c2ccc([C@@H](c3cccc(F)c3)[C@@H](C)C(=O)Nc3nnc(C)s3)s2)cc1 [Example 141, N-Ethyl-4-(5-((1R,2R)-1-(3-fluorophenyl)-2-methyl-3-((5-methyl-1,3,4-thiadiazol-2-yl)amino)-3-oxopropyl)-2-thienyl)-N-methylbenzamide] | 62.2 nM |  | 46% |  |
| CN(C)C(=O)c1ccc(-c2ccc(C(c3ccccc3)C(C)(C)C(=O)Nc3nncs3)s2)cc1Cl (stereo not shown) [Example 43, 2-Chloro-4-(5-(2,2-dimethyl-3-oxo-1-phenyl-3-(1,3,4-thiadiazol-2-ylamino)propyl)-2-thienyl)-N,N-dimethylbenzamide] |  | 10.7 nM | 38.4% |  |

The next lines start with results.

| EC50 (Homo sapiens, A549, 7 h) | EC50 | SMILES | Emax (Homo sapiens, A549, 7 h) | AP-1 Max % inh (Cellular Transrepression Assay) |
| --- | --- | --- | --- | --- |
| 13.2 nM |  | CCN(C)C(=O)c1ccc(-c2ccc(C(c3ccccc3)C(C)(C)C(=O)Nc3nncs3)s2)cc1 (stereo not shown) [Example 50, 4-(5-(2,2-dimethyl-3-oxo-1-phenyl-3-(1,3,4-thiadiazol-2-ylamino)propyl)-2-thienyl)-N-ethyl-N-methylbenzamide] | 39.6% |  |
| 15.2 nM |  | C[C@@H](C(=O)Nc1nncs1)[C@H](c1ccccc1)c1ccc(-c2ccc(C(=O)N(C)C)cc2)s1 [Example 140, N,N-dimethyl-4-(5-((1R,2R)-2-methyl-3-oxo-1-phenyl-3-(1,3,4-thiadiazol-2-ylamino)propyl)-2-thienyl)benzamide] | 54.1% |  |
| 16.6 nM |  | CC(C)(C(=O)Nc1nncs1)[C@@H](c1cccc(F)c1)c1ccc(-c2ccc(C(=O)N3CCOCC3)c(F)c2)s1 [Example 83, (3R)-3-(5-(3-Fluoro-4-(4-morpholinylcarbonyl)phenyl)-2-thienyl)-3-(3-fluorophenyl)-2,2-dimethyl-N-1,3,4-thiadiazol-2-ylpropanamide] | 32.7% |  |
| 34.7 nM |  | CCN(C)C(=O)c1ccc(-c2ccc([C@H](c3cccc(F)c3)C(C)(C)C(=O)Nc3nncs3)s2)cc1F [Example 80, N-ethyl-2-fluoro-4-(5-((1R)-1-(3-fluorophenyl)-2,2-dimethyl-3-oxo-3-(1,3,4-thiadiazol-2-ylamino)propyl)-2-thienyl)-N-methylbenzamide] | 33.6% |  |
| 9.45 nM |  | CN(C)C(=O)c1ccc(-c2ccc(C(c3ccccc3)C(C)(C)C(=O)Nc3nccs3)s2)cc1 (stereo not shown) [Example 54, 4-(5-(2,2-Dimethyl-3-oxo-1-phenyl-3-(1,3-thiazol-2-ylamino)propyl)-2-thienyl)-N,N-dimethylbenzamide] | 62.4% |  |
| 14.4 nM |  | C[C@@H](C(=O)Nc1nncs1)[C@H](c1cccc(F)c1)c1ccc(-c2ccc(C(=O)N(C)C)cc2)s1 [Example 117, 4-(5-((1R,2R)-1-(3-fluorophenyl)-2-methyl-3-oxo-3-(1,3,4-thiadiazol-2-ylamino)propyl)-2-thienyl)-N,N-dimethylbenzamide] | 56.5% |  |
| 31 nM |  | C[C@@H](C(=O)Nc1nncs1)[C@H](c1cccc(F)c1)c1ccc(-c2ccc(C(=O)N3CCCC3)c(Cl)c2)s1 [Example 115, (2R,3R)-3-(5-(3-chloro-4-(1-pyrrolidinylcarbonyl)phenyl)-2-thienyl)-3-(3-fluorophenyl)-2-methyl-N-1,3,4-thiadiazol-2-ylpropanamide] | 39.1% |  |
| 5.16 nM |  | CN(C)C(=O)c1ccc(-c2ccc([C@H](c3cccc(F)c3)C(C)(C)C(=O)Nc3nncs3)s2)cc1Cl [Example 66, 2-chloro-4-(5-((1R)-1-(3-fluorophenyl)-2,2-dimethyl-3-oxo-3-(1,3,4-thiadiazol-2-ylamino)propyl)-2-thienyl)-N,N-dimethylbenzamide] | 50.4% |  |
| 18.5 nM |  | C[C@@H](C(=O)Nc1nncs1)[C@H](c1cccc(F)c1)c1ccc(-c2ccc(C(=O)N(C)C)c(F)c2)s1 [Example 112, 2-fluoro-4-(5-((1R,2R)-1-(3-fluorophenyl)-2-methyl-3-oxo-3-(1,3,4-thiadiazol-2-ylamino)propyl)-2-thienyl)-N,N-dimethylbenzamide] | 54% |  |
| 40.5 nM |  | CC(C)(C(=O)Nc1nccs1)C(c1ccccc1)c1ccc(N2CCOCC2)nc1 (single isomer, unassigned) [Example 21, 2,2-Dimethyl-3-(6-(4-morpholinyl)-3-pyridinyl)-3-phenyl-N-1,3-thiazol-2-ylpropanamide] | 23.9% |  |
| 21.5 nM |  | CC(C)Cc1ccc(-c2ccc(C(c3ccccc3)C(C)(C)C(=O)Nc3nncs3)cn2)cc1 (stereo not shown) [Example 31, 3-(6-(4-isobutylphenyl)-3-pyridinyl)-2,2-dimethyl-3-phenyl-N-1,3,4-thiadiazol-2-ylpropanamide] | 46.8% |  |
| 8.39 nM |  | C[C@@H](C(=O)Nc1nncs1)[C@H](c1cccc(F)c1)c1ccc(-c2ccc(C(=O)N3CCOCC3)cc2)s1 [Example 109, (2R,3R)-3-(3-fluorophenyl)-2-methyl-3-(5-(4-(4-morpholinylcarbonyl)phenyl)-2-thienyl)-N-1,3,4-thiadiazol-2-ylpropanamide] | 57.5% |  |
| 18.8 nM |  | CC(C)Cc1ccc(-c2ccc(C(c3cccc(F)c3)C(C)(C)C(=O)Nc3nncs3)s2)cc1 (stereo not shown) [Example 39, 3-(3-fluorophenyl)-3-(5-(4-isobutylphenyl)-2-thienyl)-2,2-dimethyl-N-1,3,4-thiadiazol-2-ylpropanamide] | 44.2% |  |
| 12.1 nM |  | CC(C)(C(=O)Nc1nncs1)C(c1ccccc1)c1ccc(-c2ccc(C(=O)N3CCOCC3)c(Cl)c2)s1 (stereo not shown) [Example 52, 3-(5-(3-chloro-4-(4-morpholinylcarbonyl)phenyl)-2-thienyl)-2,2-dimethyl-3-phenyl-N-1,3,4-thiadiazol-2-ylpropanamide] | 38.5% |  |
